Key:
[1] = system: mouse; conditions: Subchronic oral toxicity in rodents, b6c3f1, Gavage/Intubation, dose end: 94 day, group: systemic, systemic / hematology / erythrocyte (rbc) count differential / erythrocyte (rbc) + systemic / hematology / hematocrit (hct) / hematocrit (…
[2] = system: mouse; conditions: Multigenerational reproductive toxicity study, cd1, Oral, Gavage/Intubation, dose end: 2 generation
[3] = system: mouse; conditions: Multigenerational reproductive toxicity study, cd1, Oral, Gavage/Intubation, dose end: 1 generation
[4] = system: mouse; conditions: Carcinogenicity, b6c3f1, Oral, Gavage/Intubation, dose end: 2 year, group: systemic
[5] = system: mouse; conditions: Prenatal developmental toxicity study, swiss albino, Oral, Gavage/Intubation, dose end: 15 GD
[6] = system: mouse; conditions: Other (NonGuideline or Guideline Not Listed), cd1, Oral, Gavage/Intubation, dose end: 2 year, group: cannot be grouped
[7] = system: mouse; conditions: Subchronic oral toxicity in rodents, b6c3f1, Gavage/Intubation, dose end: 14 week, group: systemic
[8] = system: mouse; conditions: Prenatal developmental toxicity study, cd1, Oral, Gavage/Intubation, dose end: 16 GD, group: developmental
[9] = system: mouse; conditions: Sub-acute repeat dose toxicity, b6c3f1, Oral, Gavage/Intubation, dose end: 16 day, group: systemic
[10] = system: rat; conditions: Subchronic oral toxicity in rodents, fischer, Gavage/Intubation, dose end: 13 week, group: systemic, systemic / in life observation / clinical signs / lethargy + systemic / in life observation / mortality / mortality
[11] = system: mouse; conditions: Subchronic oral toxicity in rodents, b6c3f1, Gavage/Intubation, dose end: 13 week, group: systemic
[12] = system: rat; conditions: Carcinogenicity, fischer, Oral, Gavage/Intubation, dose end: 103 week, group: systemic
[13] = system: rat; conditions: Sub-acute repeat dose toxicity, fischer, Oral, Gavage/Intubation, dose end: 16 day, group: systemic
[14] = system: mouse; conditions: Carcinogenicity; b6c3f1; Oral; Gavage/Intubation; dose end: 103 week; group: systemic; systemic / pathology microscopic / kidney / inflammation + systemic / pathology microscopic / liver / cytomegaly + systemic / pathology …
[15] = system: rabbit; conditions: Prenatal developmental toxicity study, new zealand white, Oral, Gavage/Intubation, dose end: 18 GD
[16] = system: rat; conditions: Subchronic dermal toxicity, sprague dawley, Topical, dose end: 91 day, group: systemic
[17] = system: rat; conditions: Prenatal developmental toxicity study, sprague dawley, Oral, Gavage/Intubation, dose end: 15 GD
[18] = system: rat; conditions: Sub-acute dermal toxicity, sprague dawley, Topical, dose end: 21 day, group: systemic
[19] = system: rabbit; conditions: Prenatal developmental toxicity study, new zealand white, Oral, Gavage/Intubation, dose end: 18 GD; remark: listed apart in the source
[20] = system: rat; conditions: Prenatal developmental toxicity study, sprague dawley, Oral, Gavage/Intubation, dose end: 15 GD; remark: listed apart in the source
[21] = group: offspring, systemic / in life observation / body weight / offspring (pup) weight
[22] = group: parental, systemic / in life observation / body weight / body weight + systemic / in life observation / body weight / dam weight + systemic / …
[23] = group: parental, systemic / in life observation / body weight / body weight + systemic / pathology gross / sperm measure / sperm morphology + systemic / …
[24] = group: reproductive, reproductive / offspring survival early / live fetuses / live fetuses
[25] = group: reproductive, reproductive / reproductive performance / reproductive performance other / NOS + reproductive / reproductive performance / gestational …
[26] = group: parental, systemic / hematology / leukocyte (wbc) count differential / leukocyte (wbc) + systemic / hematology / mean corpuscular (cell) volume (mcv…
[27] = group: parental, systemic / hematology / mean corpuscular (cell) volume (mcv) / mean corpuscular (cell) volume (mcv) + systemic / hematology / mean …
[28] = group: reproductive, reproductive / reproductive performance / pregnancy / pregnancy + reproductive / reproductive performance / resorptions / resorptions + …
[29] = systemic / hematology / erythrocyte (rbc) count differential / erythrocyte (rbc) + systemic / hematology / mean corpuscular (cell) volume (…
[30] = group: developmental, systemic / in life observation / body weight / fetal weight
[31] = group: maternal, systemic / in life observation / food consumption / food consumption
[32] = reproductive / reproductive performance / fertility / fertility + reproductive / offspring survival early / litter size / litter size + …
[33] = systemic / hematology / erythrocyte (rbc) count differential / erythrocyte (rbc) + systemic / hematology / hematocrit (hct) / hematocrit (…
[34] = developmental / developmental malformation / bone / supernumerary + systemic / in life observation / body weight / fetal weight
[35] = systemic / in life observation / body weight / fetal weight
[36] = systemic / in life observation / body weight / body weight
[37] = systemic / in life observation / body weight / body weight + systemic / in life observation / clinical signs / abnormal movements + systemic…
[38] = systemic / in life observation / mortality / mortality
[39] = systemic / in life observation / mortality / mortality + systemic / in life observation / body weight / body weight
[40] = systemic / pathology microscopic / kidney / hyperplasia + systemic / pathology microscopic / kidney / mineralization
[41] = systemic / pathology microscopic / kidney / hyperplasia + systemic / pathology microscopic / kidney / mineralization + systemic / pathology …
[42] = systemic / in life observation / clinical signs / lethargy
[43] = group: developmental, developmental / developmental malformation / bone / misaligned + systemic / in life observation / body weight / fetal weight + developmental…
[44] = group: maternal, reproductive / reproductive performance / aborted / aborted + reproductive / reproductive performance / postimplantation loss / …
[45] = systemic / pathology microscopic / skin / acanthosis + systemic / hematology / blood clotting / blood clotting - prothrombin time + systemic…
[46] = group: maternal, systemic / in life observation / body weight / body weight + systemic / in life observation / body weight / body weight gain + systemic / in…
[47] = systemic / in life observation / body weight / body weight gain + systemic / in life observation / clinical signs / desquamation + systemic…
[48] = systemic / pathology gross / skin / scabbing
[49] = group: maternal, reproductive / reproductive performance / resorptions / resorptions
[50] = group: maternal, systemic / in life observation / body weight / body weight gain

SMILES: Cc1cn([C@H]2C[C@H](N=[N+]=[N-])[C@@H](CO)O2)c(=O)[nH]c1=O [3'-Azido-3'-deoxythymidine]
- LEL [1]: 100 mg/kg/day
- LOAEL [1]: > 400 mg/kg/day
- NEL [1]: < 100 mg/kg/day
- NOAEL [1]: ≥ 400 mg/kg/day
- LEL [2, 21]: 200 mg/kg/day
- LOAEL [2, 21]: > 200 mg/kg/day
- NEL [2, 21]: 100 mg/kg/day
- NOAEL [2, 21]: ≥ 200 mg/kg/day
- LOAEL [2, 22]: > 200 mg/kg/day
- NOAEL [2, 22]: ≥ 200 mg/kg/day
- LEL [2, 23]: 50 mg/kg/day
- NEL [2, 23]: < 50 mg/kg/day
- LEL [2, 24]: 50 mg/kg/day
- NEL [2, 24]: < 50 mg/kg/day
- LOAEL [2, 25]: > 200 mg/kg/day
- NOAEL [2, 25]: ≥ 200 mg/kg/day
- LOAEL [3, 26]: > 400 mg/kg/day
- NOAEL [3, 26]: ≥ 400 mg/kg/day
- LEL [3, 27]: 100 mg/kg/day
- NEL [3, 27]: < 100 mg/kg/day
- LEL ([3]; group: reproductive, reproductive / reproductive performance / pregnancy / pregnancy): 200 mg/kg/day
- NEL ([3]; group: reproductive, reproductive / reproductive performance / pregnancy / pregnancy + reproductive / reproductive performance / resorptions / resorptions): 100 mg/kg/day
- LOAEL [3, 28]: > 400 mg/kg/day
- NOAEL [3, 28]: ≥ 400 mg/kg/day
- LEL [4, 29]: 30 mg/kg/day
- NEL [4, 29]: < 30 mg/kg/day
- LOAEL ([4]; systemic / pathology microscopic / vagina / hyperplasia): 120 mg/kg/day
- NOAEL ([4]; systemic / pathology microscopic / vagina / hyperplasia + systemic / pathology microscopic / liver / adenoma/carcinoma combined + systemic…): 60 mg/kg/day
- LEL [5, 30]: 100 mg/kg/day
- LOAEL [5, 30]: > 400 mg/kg/day
- NEL [5, 30]: < 100 mg/kg/day
- NOAEL [5, 30]: ≥ 400 mg/kg/day
- LEL [5, 31]: 400 mg/kg/day
- LOAEL [5, 31]: > 400 mg/kg/day
- NEL [5, 31]: 200 mg/kg/day
- NOAEL [5, 31]: ≥ 400 mg/kg/day
- NEL ([6]; reproductive / reproductive performance / fertility / fertility): 100 mg/kg/day
- LEL [6, 32]: 200 mg/kg/day
- LOAEL [6, 32]: > 300 mg/kg/day
- NOAEL [6, 32]: ≥ 300 mg/kg/day
- LEL [7, 33]: 50 mg/kg/day
- NEL [7, 33]: < 50 mg/kg/day
- LOAEL ([7]; systemic / in life observation / body weight / body weight gain + systemic / pathology microscopic / bone marrow / atrophy): 800 mg/kg/day
- NOAEL ([7]; systemic / in life observation / body weight / body weight gain + systemic / pathology microscopic / bone marrow / atrophy + systemic / …): 200 mg/kg/day
- LOAEL [8, 34]: > 400 mg/kg/day
- NOAEL [8, 34]: ≥ 400 mg/kg/day
- LEL [8, 35]: 100 mg/kg/day
- NEL [8, 35]: < 100 mg/kg/day

SMILES: CC1=CC(=O)CC(C)(C)C1 [Isophorone]
- LEL [9, 36]: 250 mg/kg/day
- LOAEL [9, 36]: 250 mg/kg/day
- NEL [9, 37]: 125 mg/kg/day
- NOAEL [9, 37]: 125 mg/kg/day
- LEL [10]: 1000 mg/kg/day
- LOAEL [10]: > 1000 mg/kg/day
- NEL [10]: 500 mg/kg/day
- NOAEL [10]: ≥ 1000 mg/kg/day
- LEL [11, 38]: 1000 mg/kg/day
- NEL [11, 38]: 500 mg/kg/day
- LOAEL [11, 39]: > 1000 mg/kg/day
- NOAEL [11, 39]: ≥ 1000 mg/kg/day
- LOAEL [12, 40]: 250 mg/kg/day
- NOAEL [12, 40]: < 250 mg/kg/day
- LEL [12, 41]: 250 mg/kg/day
- NEL [12, 41]: < 250 mg/kg/day
- LOAEL [13, 36]: 1000 mg/kg/day
- LEL [13, 42]: 125 mg/kg/day
- NEL [13, 42]: < 125 mg/kg/day
- NOAEL ([13]; systemic / in life observation / clinical signs / lethargy + systemic / in life observation / body weight / body weight + systemic / in life…): 500 mg/kg/day
- LEL [14]: 250 mg/kg/day
- LOAEL [14]: 250 mg/kg/day
- NEL [14]: < 250 mg/kg/day
- NOAEL [14]: < 250 mg/kg/day

SMILES: CN(C)C(=S)[S-].[K+] [Potassium dimethyldithiocarbamate]
- LOAEL ([15]; group: developmental, developmental / developmental malformation / bone / misaligned + systemic / in life observation / body weight / fetal weight): 38 mg/kg/day
- LEL [15, 43]: 38 mg/kg/day
- NEL [15, 43]: 12.8 mg/kg/day
- NOAEL [15, 43]: 12.8 mg/kg/day
- LEL [15, 44]: 38 mg/kg/day
- LOAEL [15, 44]: 38 mg/kg/day
- NEL [15, 44]: 12.8 mg/kg/day
- NOAEL [15, 44]: 12.8 mg/kg/day
- LOAEL ([16]; systemic / pathology gross / skin / scabbing + systemic / pathology microscopic / skin / acanthosis): 350 mg/kg/day
- NOAEL ([16]; systemic / pathology gross / skin / scabbing + systemic / pathology microscopic / skin / acanthosis + systemic / hematology / blood clotting…): 75 mg/kg/day
- LEL [16, 45]: 75 mg/kg/day
- NEL [16, 45]: < 75 mg/kg/day
- LEL [17, 30]: 400 mg/kg/day
- LOAEL [17, 30]: > 400 mg/kg/day
- NEL [17, 30]: 150 mg/kg/day
- NOAEL [17, 30]: ≥ 400 mg/kg/day
- LEL [17, 46]: 150 mg/kg/day
- LOAEL [17, 46]: 150 mg/kg/day
- NEL [17, 46]: 25 mg/kg/day
- NOAEL [17, 46]: 25 mg/kg/day
- LOAEL [18, 47]: 750 mg/kg/day
- NOAEL [18, 47]: 500 mg/kg/day
- LEL [18, 48]: 100 mg/kg/day
- NEL [18, 48]: < 100 mg/kg/day
- LEL [19, 30]: 50 mg/kg/day
- LOAEL [19, 30]: 150 mg/kg/day
- NEL [19, 30]: 25 mg/kg/day
- NOAEL [19, 30]: 50 mg/kg/day
- LEL [19, 49]: 25 mg/kg/day
- NEL [19, 49]: < 25 mg/kg/day
- NOAEL ([19]; group: maternal, reproductive / reproductive performance / resorptions / resorptions + systemic / in life observation / body weight / body weight gain + …): 50 mg/kg/day
- LOAEL [19, 50]: 150 mg/kg/day
- LEL [20, 30]: 600 mg/kg/day
- LOAEL [20, 30]: 600 mg/kg/day
- NEL [20, 30]: 400 mg/kg/day
- NOAEL [20, 30]: 400 mg/kg/day
- LEL [20, 50]: 100 mg/kg/day
- NEL [20, 50]: < 100 mg/kg/day
- LOAEL ([20]; group: maternal, systemic / in life observation / body weight / body weight gain + systemic / in life observation / clinical signs / salivation): 400 mg/kg/day
- NOAEL ([20]; group: maternal, systemic / in life observation / body weight / body weight gain + systemic / in life observation / clinical signs / salivation + …): 200 mg/kg/day

Source: EPA's ToxRefDB 2
